Literature values, collected in US5892063A (Hauser, Inc., priority 1997, dated 1999).

Experiments:
[1] = test system: murine and human xenografts; conditions: cited from earlier work
microtubule = conditions: relative to paclitaxel; cited from earlier work
tumor models = conditions: vs paclitaxel, cisplatin, cyclophosphamide, doxorubicin; same tumor models; cited from earlier work
[2] = cited from earlier work
[3] = test system: murine and human tumor cell lines; conditions: cited from earlier work

Compound: CC(=O)O[C@@]12CO[C@@H]1C[C@H](O)[C@@]1(C)C(=O)[C@H](O)C3=C(C)[C@@H](OC(=O)[C@H](O)[C@@H](NC(=O)OC(C)(C)C)c4ccccc4)C[C@@](O)([C@@H](OC(=O)c4ccccc4)[C@H]21)C3(C)C [Docetaxel, docetaxel]
- in vivo preclinical activity [1]: impressive
- potency as inhibitor of microtubule depolymerization vs paclitaxel (microtubule): twice as potent
- cytotoxic activity vs other antineoplastic agents (tumor models): higher cytoxic activity than other antineoplastic agents
- aqueous solubility [2]: low aqueous solubility
- in vitro cytotoxicity [3]: impressive
